# Values of other authors in patent US7041634B2, “Method of inhibiting immune system destruction of transplanted viable cells” (Emory University, priority 1995, dated 2006).
# System: encapsulated hamster islet xenografts in NOD mice
# Conditions: NOD recipients
smiles,measurement,value
N=C(N)NCCCCCCC(=O)NC(O)C(=O)NCCCCNCCCN (stereo not shown) [deoxyspergualin],prolongation of encapsulated islet xenografts,significant prolongation
